Measurements reported in patent publication EP3122315B1, “ACTIVE-INGREDIENT COMBINATIONS CONSISTING OF 4-HYDROXYACETOPHENONE AND ONE OR MORE GLYCERIN AND/OR OLIGOGLYCERIN ESTERS OF BRANCHED CHAINS AND/OR UNBRANCHED CHAINS OF ALKANE CARBOXYLIC ACIDS, AND COSMETIC OR DERMATOLOGICAL PREPARATIONS CONTAINING SAID ACTIVE-INGREDIENT COMBINATIONS” (Symrise AG, priority 2014, dated 2015).
Like-named read-outs stand apart in the source and are kept apart here.

Experiment: Solubility tests of 4-hydroxyacetophenone in cosmetic oil with or without glycerol ester additive
Conditions: for Löslichkeit "HAP" bei 35 °C / Löslichkeit "HAP" bei RT: solvent C12-15 Alkylbenzoate; for Löslichkeit "HAP" bei RT: room temperature (ca. 20 °C)
Description: Die Durchführung der Löslichkeitsversuche erfolgte bei 2 verschiedenen Temperaturen: Bei Raumtemperatur (ca. 20 °C) und bei 35 °C.
Das weiße, kristalline 4-Hydroxyacetophenon ("4-HAP") wurde in kleinen Portionen langsam (über mehrere Stunden) zum jeweiligen Lösungsmittel unter Rühren hinzugegeben, bis sich kein weiteres Material mehr lösen ließ. Hier war die Löslichkeitsgrenze erreicht. Nicht gelöstes Material war deutlich als milchiger Niederschlag oder einzelne Kristalle erkennbar. Das Additiv (der jeweilige Glycerinester) wurde ebenfalls in kleinen Portionen hinzugegeben.
Die Experimente bei 35°C wurden im Wasserbad durchgeführt. Die Temperatur wurde per Temperatursonde, welche mit dem Heizrührer verbunden war, konstant gehalten. Die Experimente wurden in verschraubten 15 ml Gläsern durchgeführt, um ein Verdampfen des Lösungsmittels zu verhindern. Die Löslichkeit wurde 12-24 Stunden nach der letzten Substanzzugabe gemessen, so dass sich das System equilibrieren konnte. […] Die Löslichkeitsversuche wurden in dem bekannten kosmetischen Öl "C12-15 Alkylbenzoate", erhältlich unter anderem unter dem Handelsnamen Tegesoft® TN B von der Firma Evonik, durchgeführt. Die Ergebnisse sind in Tabelle 1 wiedergegeben: Tabelle 1

Compound: CCCCCCCC(=O)OCC(O)CO (centres unmarked) [Glycerylcaprylat]
- Löslichkeit des Glycerylesters im verwendeten Lösungsmittel (kosmetischen öl): vollständig

Compound: CCCCCCCCCCCCCCCCCC(=O)OCC(O)CO (centres unmarked) [Glycerylstearate, reference compound]
- Einfluss auf die Löslichkeit von 4-Hydroxyacetophenon (known emulsifier used as additive, concentration not given): keinen Einfluss

Compound: CC(=O)c1ccc(O)cc1 [HAP, 4-Hydroxyacetophenon]
- Kristalle mit (Löslichkeit "HAP" bei 35 °C) (concentration at which undissolved crystals were seen, no glycerol ester, C12-15 Alkylbenzoate, 35 °C): 3%
- Kristalle bei (Löslichkeit "HAP" bei RT) (concentration at which undissolved crystals were seen, no glycerol ester, C12-15 Alkylbenzoate, room temperature): 2,25%
- Löslichkeit "HAP" bei 35 °C (no glycerol ester (Ohne), 35 °C water bath): 2,5%
- Löslichkeit "HAP" bei RT (no glycerol ester (Ohne), read 12-24 h after last addition): 2%
- Löslichkeit "HAP" bei RT (with 0,5 % Polyglyceryl-2-caprat): 2,25 % gelöst
- Löslichkeit "HAP" bei 35 °C (with 1 % Glycerylcaprylat, 35 °C): 3 % gelöst (Steigerung im Vergleich zu 2,5 % ohne Ester
- Löslichkeit "HAP" bei RT (with 1 % Glycerylcaprylat): 2,25 % gelöst
- Löslichkeit "HAP" bei 35 °C (with 1 % Polyglyceryl-2-caprat, 35 °C): 3 % gelöst (Steigerung im Vergleich zu 2,5 % ohne Ester)
- Löslichkeit "HAP" bei RT (with 1 % Polyglyceryl-2-caprat): < 2,25 % nicht vollständig gelöst

Compound: Glycerylstearatcitrate [reference compound]
- Einfluss auf die Löslichkeit von 4-Hydroxyacetophenon: keinen Einfluss

Compound: Polyglyceryl-2-caprat
- Löslichkeit des Glycerylesters im verwendeten Lösungsmittel (kosmetischen öl) (1 % of the ester in C12-15 Alkylbenzoate, 35°C): vollständig
- Löslichkeit des Glycerylesters im verwendeten Lösungsmittel (kosmetischen öl) (1 % of the ester in C12-15 Alkylbenzoate, RT): vollständig
